According to ChEMBL document CHEMBL4130444, “1,4-Naphthoquinones as inhibitors of Itch, a HECT domain-E3 ligase, and tumor growth suppressors in multiple myeloma” (Eur J Med Chem, 2017):

Assays:
[1] = species on record: Homo sapiens; test: Inhibition of UBE1/UbcH5a/SCFFbw7/Cyclin E1 (unknown origin) assessed as protein activity at […] by electrochemiluminescence based ubiquitin profiler panel assay; set-up: scale not given: the % may be the effect or the level left
[2] = species on record: Homo sapiens; test: Inhibition of UBE1/UbcH3/SCFbTrCP1/IkBa (unknown origin) assessed as protein activity at […] by electrochemiluminescence based ubiquitin profiler panel assay; set-up: scale not given: the % may be the effect or the level left
[3] = species on record: Homo sapiens; test: Inhibition of UBE1/UbcH4/SCFbTrCP1/IkBa (unknown origin) assessed as protein activity at […] by electrochemiluminescence based ubiquitin profiler panel assay; set-up: scale not given: the % may be the effect or the level left
[4] = species on record: Homo sapiens; test: Inhibition of UBE1/UbcH3/SCFbTrCP1/b-catenin (unknown origin) assessed as protein activity at […] by electrochemiluminescence based ubiquitin profiler panel assay; set-up: scale not given: the % may be the effect or the level left
[5] = species on record: Homo sapiens; test: Inhibition of UBE1/UbcH4/SCFbTrCP1/b-catenin (unknown origin) assessed as protein activity at […] by electrochemiluminescence based ubiquitin profiler panel assay; set-up: scale not given: the % may be the effect or the level left
[6] = species on record: Homo sapiens; test: Inhibition of UBE1/UbcH4/MDM2/CK1d/p53 (unknown origin) assessed as protein activity at […] by electrochemiluminescence based ubiquitin profiler panel assay; set-up: scale not given: the % may be the effect or the level left
[7] = species on record: Homo sapiens; test: Inhibition of UBE1/UbcH5c/MDM2/CK1d/p53 (unknown origin) assessed as protein activity at […] by electrochemiluminescence based ubiquitin profiler panel assay; set-up: scale not given: the % may be the effect or the level left
[8] = species on record: Homo sapiens; test: Inhibition of UBE1/UbcH4/MDM2/MDM2(Auto) (unknown origin) assessed as protein activity at […] by electrochemiluminescence based ubiquitin profiler panel assay; set-up: scale not given: the % may be the effect or the level left
[9] = species on record: Homo sapiens; test: Inhibition of UBE1/UbcH5c/MDM2/MDM2(Auto) (unknown origin) assessed as protein activity at […] by electrochemiluminescence based ubiquitin profiler panel assay; set-up: scale not given: the % may be the effect or the level left
[10] = species on record: Homo sapiens; test: Inhibition of UBE1/UbcH4/c-Cbl/Src (unknown origin) assessed as protein activity at […] by electrochemiluminescence based ubiquitin profiler panel assay; set-up: scale not given: the % may be the effect or the level left
[11] = species on record: Homo sapiens; test: Inhibition of UBE1/UbcH4/c-Cbl/Kit (unknown origin) assessed as protein activity at […] by electrochemiluminescence based ubiquitin profiler panel assay; set-up: scale not given: the % may be the effect or the level left
[12] = species on record: Homo sapiens; test: Inhibition of UBE1/UbcH4/VHL/HIF-1a (unknown origin) assessed as protein activity at […] by electrochemiluminescence based ubiquitin profiler panel assay; set-up: scale not given: the % may be the effect or the level left
[13] = species on record: Homo sapiens; test: Inhibition of UBE1/UbcH5a/VHL/HIF-1a (unknown origin) assessed as protein activity at […] by electrochemiluminescence based ubiquitin profiler panel assay; set-up: scale not given: the % may be the effect or the level left
[14] = species on record: Homo sapiens; test: Inhibition of UBE1/UbcH5c/VHL/HIF-1a (unknown origin) assessed as protein activity at […] by electrochemiluminescence based ubiquitin profiler panel assay; set-up: scale not given: the % may be the effect or the level left
[15] = species on record: Homo sapiens; test: Inhibition of UBE1/UbcH7/Parkin/Parkin(Auto) (unknown origin) assessed as protein activity at […] by electrochemiluminescence based ubiquitin profiler panel assay; set-up: scale not given: the % may be the effect or the level left
[16] = species on record: Homo sapiens; test: Inhibition of UBE1/UbcH7/Parkin/p38/JTV-1 (unknown origin) assessed as protein activity at […] by electrochemiluminescence based ubiquitin profiler panel assay; set-up: scale not given: the % may be the effect or the level left
[17] = species on record: Homo sapiens; test: Inhibition of UBE1/UbcH13/Uev1A/CHIP/p53 (unknown origin) assessed as protein activity at […] by electrochemiluminescence based ubiquitin profiler panel assay; set-up: scale not given: the % may be the effect or the level left
[18] = species on record: Homo sapiens; test: Inhibition of UBE1/UbcH13/Uev1A/CHIP/Hsp70 (unknown origin) assessed as protein activity at […] by electrochemiluminescence based ubiquitin profiler panel assay; set-up: scale not given: the % may be the effect or the level left
[19] = species on record: Homo sapiens; test: Inhibition of UBE1/UbcH13/Uev1A/CHIP/CHIP(Auto) (unknown origin) assessed as protein activity at […] by electrochemiluminescence based ubiquitin profiler panel assay; set-up: scale not given: the % may be the effect or the level left
[20] = species on record: Homo sapiens; test: Inhibition of UBE1/UbcH5c/MuRF1/Cardiac Troponin (unknown origin) assessed as protein activity at […] by electrochemiluminescence based ubiquitin profiler panel assay; set-up: scale not given: the % may be the effect or the level left
[21] = species on record: Homo sapiens; test: Inhibition of UBE1/UbcH6/Parkin/Parkin(Auto) (unknown origin) assessed as protein activity at […] by electrochemiluminescence based ubiquitin profiler panel assay; set-up: scale not given: the % may be the effect or the level left
[22] = species on record: Homo sapiens; test: Inhibition of UBE1/UbcH6/Parkin/p38/JTV-1 (unknown origin) assessed as protein activity at […] by electrochemiluminescence based ubiquitin profiler panel assay; set-up: scale not given: the % may be the effect or the level left
[23] = test system: A-431; test: Antiproliferative activity against human A431 cells incubated for 48 hrs by SRB assay; format: functional; conditions: A-431, 48 h
[24] = test system: KATO III stomach cancer cell line; test: Antiproliferative activity against human KATO III cells incubated for 48 hrs by SRB assay; format: functional
[25] = test system: U-87 MG; test: Antiproliferative activity against human U87MG cells incubated for 48 hrs by SRB assay; format: functional, U-87MG ATCC
[26] = test system: Hep 3B2; test: Antiproliferative activity against human Hep3B cells incubated for 48 hrs by SRB assay; format: functional
[27] = test system: HepG2; test: Antiproliferative activity against human HepG2 cells incubated for 48 hrs by SRB assay; format: functional; conditions: HepG2, 48 h
[28] = test system: A498; test: Antiproliferative activity against human A498 cells incubated for 48 hrs by SRB assay; format: functional; conditions: A498, 48 h
[29] = test system: ACHN; test: Antiproliferative activity against human ACHN cells incubated for 48 hrs by SRB assay; format: functional
[30] = test system: MOLT-4; test: Antiproliferative activity against human MOLT4 cells incubated for 48 hrs by SRB assay; format: functional; conditions: MOLT-4, 48 h
[31] = test system: HL-60; test: Antiproliferative activity against human HL60 cells incubated for 48 hrs by SRB assay; format: functional; conditions: HL-60, 48 h
[32] = test system: K562; test: Antiproliferative activity against human K562 cells incubated for 48 hrs by SRB assay; format: functional; conditions: K562, 48 h

O=C(Nc1ccncc1)c1ccc(CNC2=C(Cl)C(=O)c3ccccc3C2=O)cc1
Activity [1]: 100%
Activity [2]: 102%
Activity [3]: 91%
Activity [4]: 101%
Activity [5]: 68%
Activity [6]: 71%
Activity [7]: 75%
Activity [8]: 92%
Activity [9]: 105%
Activity [10]: 89%
Activity [11]: 86%
Activity [12]: 96%
Activity [13]: 95%
Activity [14]: 100%
Activity [15]: 65%
Activity [16]: 72%
Activity [17]: 52%
Activity [18]: 93%
Activity [19]: 65%
Activity [20]: 92%
Activity [21]: 61%
Activity [22]: 79%
GI50 [23]: 1200 nM
GI50 [24]: 2400 nM
GI50 [25]: 2500 nM
GI50 [26]: 1400 nM
GI50 [27]: 3.6 µM
GI50 [28]: 3.5 µM
GI50 [29]: 2700 nM
GI50 [30]: 4 µM
GI50 [31]: 1600 nM
GI50 [32]: 1700 nM
